Experimental data from patent US6849598B1, “Therapeutic compositions comprising bactericidal/permeability-increasing (BPI) protein products” (XOMA, priority 1995, dated 2005).

Tested on: P. aeruginosa (ATCC 19660)
Assay: Antibiotic susceptibility (MIC, Microscan® MIC Plus Type 2 panel) with rBPI21/P123 and EDTA
Assay type: cell-based
Parameters: key to susceptibility interpretation of MIC (superscript): R: resistant; I: intermediate; S: susceptible
Conditions: Control (No BPI21)
Experimental: In additional experiments, a BPI protein product, rBPI21, was formulated with an anti-bacterial activity enhancing poloxamer, specifically PLURONIC P123, and with various concentrations of EDTA, and was evaluated for its effect on the antibiotic susceptibility of a Pseudomonas aeruginosa (ATCC 19660). Antibiotic susceptibility was determined using Microscan® panel plates (Dade Microscan, West Sacramento, Calif.) that allow simultaneous determination of minimum inhibitory concentrations for a number of different antibiotics.
The antimicrobial susceptibility tests performed on the Microscan® panel plates are miniaturizations of the broth dilution susceptibility test. Antimicrobial agents are serially diluted in Mueller-Hinton broth (supplemented with calcium and magnesium, or with sodium chloride for oxacillin, or with thymidine phosphorylase for trimethoprim, sulfamethoxazole and trimethoprim/ sulfamethoxazole) to concentrations bridging the range of clinical interest. One well on the 96-well Microscan® plate is a growth control well that contains dehydrated broth only. The remaining wells contain dehydrated broth and antibiotic (or broth and biochemical reagent indicator), which is rehydrated to the desired concentration by inoculation of a standardized suspension of test organism. The chromogenic biochemical agent indicators are used to identify and characterize the species of bacteria based on detection of pH changes and substrate utilization. […] Gram-negative and gram positive organisms may be tested using any of the Microscan® panel plates (Microscan®, Dade Microscan, West Sacramento, Calif.). In these experiments with P. aeruginosa, the MIC Plus Type 2 panel plates were used. The concentrations of antibiotics tested in this panel plate are shown below in Table 16. The antibiotic susceptibility standards (interpretation of an MIC as resistant, intermediate or susceptible according to Microscan®'s NCCLS-derived standards) applicable to the gram-negative organisms that may be tested in each panel plate appear below in Table 16A.
For these experiments with P. aeruginosa, the following procedure was performed: The organism was streaked onto TSA plates (Remel, Lenexa, Kans.) and incubated for 18-24 hours overnight. Well-isolated A, colonies from the plates were emulsified in 3 ml of sterile Inoculum Water d(catalog no. B1015-2, MicrosScan® system, Dade Microscan, West Sacramento, Calif.) to a final turbidity equivalent to 0.5 McFarland Barium Sulfate standard. This cell suspension was vortexed for 2 to 3 seconds and 100 μl was transferred to glass tubes containing 25 ml of Inoculum Water with Pluronic-D (catalog no. B1015-7, MicroScan® system, Dade Microscan, West Sacramento, Calif.) (hereinafter “Pluronic Inoculum Water”), or 25 ml of Pluronic Inoculum Water into which rBPI21 in 0.2% PLURONIC P123, 0.002% TWEEN 80, 5mM sodium citrate, 150 mM NaCl (“rBPI21/P123”) had been diluted to 64 μg/ml rBPI21.
The 25 ml of this inoculum containing rBPI21 was mixed by inversion and poured into a tray. The inoculum was drawn up into a manual 96-well pipetting system (RENOK^− rehydrator-inoculator system, Dade Microscan, West Sacramento, Calif.) designed for use with the Microscan® panel plates, and 110 μl of the inoculum was delivered to each well of a Microscan® MIC Plus Type 2 panel plate. When added to the wells, this inoculum achieves a final bacterial concentration of 4×10^5 to 7×10^5 CFU/ml. The panel plates were then incubated at 35° C. for 15-24 hours and read visually for cell growth.
No growth was defined as a slight whiteness in the well or a clear broth. Growth appeared as turbidity which could take the form of a white haze throughout the well, a white button in the center of the well, or a fine granule growth throughout the well. All wells were read against a black indirectly lighted background. Visual results of the biochemical reactions were read into a database for bacterial identification.

susceptibility interpretation of MIC (superscript)	Compound	Minimum Inhibitory Concentration of Antibiotic
S	CC1(C)S[C@@H]2[C@H](NC(=O)[C@H](NC(=O)N3CCNC3=O)c3ccccc3)C(=O)N2[C@H]1C(=O)O [Azlocillin]	< 64 µg/mL
S	C[C@H]1[C@H](NC(=O)/C(=N\OC(C)(C)C(=O)O)c2csc(N)n2)C(=O)N1S(=O)(=O)O [Aztreonam]	4 µg/mL
I	CC1(C)S[C@@H]2[C@H](NC(=O)C(C(=O)O)c3ccccc3)C(=O)N2[C@H]1C(=O)O (some centres unmarked) [Carbenicillin]	32 µg/mL
R	Cn1nnnc1SCC1=C(C(=O)O)N2C(=O)[C@@H](NC(=O)[C@H](O)c3ccccc3)[C@H]2SC1 [Cefamandole]	> 32 µg/mL
R	O=C(O)C1=C(CSc2nnnn2CS(=O)(=O)O)CS[C@@H]2[C@H](NC(=O)[C@H](O)c3ccccc3)C(=O)N12 [Cefonicid]	> 16 µg/mL

Same assay, conditions: rBPI21/P123 at 64 μg/ml rBPI21; With 0% EDTA

susceptibility interpretation of MIC (superscript)	Compound	Minimum Inhibitory Concentration of Antibiotic
S	CC1(C)S[C@@H]2[C@H](NC(=O)[C@H](NC(=O)N3CCNC3=O)c3ccccc3)C(=O)N2[C@H]1C(=O)O [Azlocillin]	< 64 µg/mL
S	C[C@H]1[C@H](NC(=O)/C(=N\OC(C)(C)C(=O)O)c2csc(N)n2)C(=O)N1S(=O)(=O)O [Aztreonam]	4 µg/mL
S	CC1(C)S[C@@H]2[C@H](NC(=O)C(C(=O)O)c3ccccc3)C(=O)N2[C@H]1C(=O)O (some centres unmarked) [Carbenicillin]	< 16 µg/mL
R	Cn1nnnc1SCC1=C(C(=O)O)N2C(=O)[C@@H](NC(=O)[C@H](O)c3ccccc3)[C@H]2SC1 [Cefamandole]	> 32 µg/mL
R	O=C(O)C1=C(CSc2nnnn2CS(=O)(=O)O)CS[C@@H]2[C@H](NC(=O)[C@H](O)c3ccccc3)C(=O)N12 [Cefonicid]	> 16 µg/mL

Same assay, conditions: rBPI21/P123 at 64 μg/ml rBPI21; With 0.01% EDTA

susceptibility interpretation of MIC (superscript)	Compound	Minimum Inhibitory Concentration of Antibiotic
S	CC1(C)S[C@@H]2[C@H](NC(=O)[C@H](NC(=O)N3CCNC3=O)c3ccccc3)C(=O)N2[C@H]1C(=O)O [Azlocillin]	< 64 µg/mL
S	C[C@H]1[C@H](NC(=O)/C(=N\OC(C)(C)C(=O)O)c2csc(N)n2)C(=O)N1S(=O)(=O)O [Aztreonam]	< 1 µg/mL
S	CC1(C)S[C@@H]2[C@H](NC(=O)C(C(=O)O)c3ccccc3)C(=O)N2[C@H]1C(=O)O (some centres unmarked) [Carbenicillin]	< 16 µg/mL
R	Cn1nnnc1SCC1=C(C(=O)O)N2C(=O)[C@@H](NC(=O)[C@H](O)c3ccccc3)[C@H]2SC1 [Cefamandole]	> 32 µg/mL
S	O=C(O)C1=C(CSc2nnnn2CS(=O)(=O)O)CS[C@@H]2[C@H](NC(=O)[C@H](O)c3ccccc3)C(=O)N12 [Cefonicid]	< 2 µg/mL

Same assay, conditions: rBPI21/P123 at 64 μg/ml rBPI21; With 0.05% EDTA

susceptibility interpretation of MIC (superscript)	Compound	Minimum Inhibitory Concentration of Antibiotic
S	CC1(C)S[C@@H]2[C@H](NC(=O)[C@H](NC(=O)N3CCNC3=O)c3ccccc3)C(=O)N2[C@H]1C(=O)O [Azlocillin]	< 64 µg/mL
S	C[C@H]1[C@H](NC(=O)/C(=N\OC(C)(C)C(=O)O)c2csc(N)n2)C(=O)N1S(=O)(=O)O [Aztreonam]	2 µg/mL
S	CC1(C)S[C@@H]2[C@H](NC(=O)C(C(=O)O)c3ccccc3)C(=O)N2[C@H]1C(=O)O (some centres unmarked) [Carbenicillin]	< 16 µg/mL
R	Cn1nnnc1SCC1=C(C(=O)O)N2C(=O)[C@@H](NC(=O)[C@H](O)c3ccccc3)[C@H]2SC1 [Cefamandole]	> 32 µg/mL
S	O=C(O)C1=C(CSc2nnnn2CS(=O)(=O)O)CS[C@@H]2[C@H](NC(=O)[C@H](O)c3ccccc3)C(=O)N12 [Cefonicid]	< 2 µg/mL

Same assay, conditions: rBPI21/P123 at 64 μg/ml rBPI21; With 0.1% EDTA

susceptibility interpretation of MIC (superscript)	Compound	Minimum Inhibitory Concentration of Antibiotic
S	CC1(C)S[C@@H]2[C@H](NC(=O)[C@H](NC(=O)N3CCNC3=O)c3ccccc3)C(=O)N2[C@H]1C(=O)O [Azlocillin]	< 64 µg/mL
S	C[C@H]1[C@H](NC(=O)/C(=N\OC(C)(C)C(=O)O)c2csc(N)n2)C(=O)N1S(=O)(=O)O [Aztreonam]	< 1 µg/mL
S	CC1(C)S[C@@H]2[C@H](NC(=O)C(C(=O)O)c3ccccc3)C(=O)N2[C@H]1C(=O)O (some centres unmarked) [Carbenicillin]	< 16 µg/mL
S	Cn1nnnc1SCC1=C(C(=O)O)N2C(=O)[C@@H](NC(=O)[C@H](O)c3ccccc3)[C@H]2SC1 [Cefamandole]	< 4 µg/mL
S	O=C(O)C1=C(CSc2nnnn2CS(=O)(=O)O)CS[C@@H]2[C@H](NC(=O)[C@H](O)c3ccccc3)C(=O)N12 [Cefonicid]	< 2 µg/mL

Same assay, conditions: summary of Table 17

Compound	effect of EDTA added to the rBPI21/P123 formulation on susceptibility of the strain to the antibiotic
C[C@H]1[C@H](NC(=O)/C(=N\OC(C)(C)C(=O)O)c2csc(N)n2)C(=O)N1S(=O)(=O)O [Aztreonam]	increasing the susceptibility
Cn1nnnc1SCC1=C(C(=O)O)N2C(=O)[C@@H](NC(=O)[C@H](O)c3ccccc3)[C@H]2SC1 [Cefamandole]	reversing resistance
O=C(O)C1=C(CSc2nnnn2CS(=O)(=O)O)CS[C@@H]2[C@H](NC(=O)[C@H](O)c3ccccc3)C(=O)N12 [Cefonicid]	reversing resistance
